Measured values as given in ChEMBL document CHEMBL3301562, “MMV Box screening against Plasmodium falciparum protein kinases and aminoacyl tRNA synthetases”.
pIC50: −log10 of the molar value.

Key:
Format in all cases: functional
[1] = target: T1, Calcium-dependent protein kinase 4 (Plasmodium falciparum (isolate 3D7), UniProt Q8IBS5); experiment: MMV: CDPK4 Protein kinase inhibition assay using recombinant PfCDPK4, syntide2 peptide substrate, ATP and KinaseGlo to measure % inhibition at 1 uM MMV box compound.
T1 sequence (Q8IBS5 whole entry): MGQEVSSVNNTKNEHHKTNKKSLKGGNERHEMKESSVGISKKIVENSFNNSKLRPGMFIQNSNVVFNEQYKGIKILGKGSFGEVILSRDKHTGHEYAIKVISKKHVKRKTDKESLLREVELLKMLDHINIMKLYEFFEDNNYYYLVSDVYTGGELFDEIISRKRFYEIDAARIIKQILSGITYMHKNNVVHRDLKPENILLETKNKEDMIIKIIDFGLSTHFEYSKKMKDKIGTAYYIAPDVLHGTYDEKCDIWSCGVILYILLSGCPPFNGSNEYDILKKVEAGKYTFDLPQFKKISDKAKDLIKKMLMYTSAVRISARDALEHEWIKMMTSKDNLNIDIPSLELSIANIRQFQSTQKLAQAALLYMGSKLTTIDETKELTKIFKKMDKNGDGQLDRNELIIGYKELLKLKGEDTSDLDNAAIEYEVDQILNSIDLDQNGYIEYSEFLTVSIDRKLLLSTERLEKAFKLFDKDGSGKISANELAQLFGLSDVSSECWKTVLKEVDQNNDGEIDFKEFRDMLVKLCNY

[2] = target: T2, Cdk-related protein kinase 6 (Plasmodium falciparum, UniProt O77239); experiment: Final concentrations were 1.5 uM ATP, 5 mM MnCl2, and 15 ug/ml PK6 in a buffer of 100 mM Tris-HCl (pH 7.5). 50 ug/mL MBP was provided as the substrate; 10 uM staurosporine was used as a control inhibitor. Incubation time was 3 hours and 40 minutes.The catalytic activity of each kinase was considered proportional to ATP consumed, as determined from measurements of residual [ATP] with the luciferase-based reagent Kinase-Glo (Promega) following incubation. Luminescence (proportional to residual [ATP]) was measured on the plate readers FLx800 (BioTek Instruments, Winooski, VT, USA) and MicroBeta2.
T2 sequence (O77239 whole entry): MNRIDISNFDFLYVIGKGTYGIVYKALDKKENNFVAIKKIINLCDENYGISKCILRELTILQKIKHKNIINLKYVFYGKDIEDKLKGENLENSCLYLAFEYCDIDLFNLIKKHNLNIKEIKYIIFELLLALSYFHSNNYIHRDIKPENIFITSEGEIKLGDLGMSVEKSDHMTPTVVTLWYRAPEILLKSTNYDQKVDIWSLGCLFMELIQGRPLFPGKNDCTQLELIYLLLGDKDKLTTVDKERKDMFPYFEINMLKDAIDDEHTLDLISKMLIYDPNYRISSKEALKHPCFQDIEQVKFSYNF

Lysine--tRNA ligase = Lysine--tRNA ligase (Plasmodium falciparum (isolate 3D7), UniProt Q8IDJ8); experiment: MMV: KRS recombinant Plasmodium falciparum Lysyl-tRNA-synthetase, assay with yeast tRNA, ATP, and lysine and 3 uM MMV malaria box compound, assay read out with kinase glo as % inhibition.
Sequence of Lysine--tRNA ligase (Q8IDJ8 whole entry): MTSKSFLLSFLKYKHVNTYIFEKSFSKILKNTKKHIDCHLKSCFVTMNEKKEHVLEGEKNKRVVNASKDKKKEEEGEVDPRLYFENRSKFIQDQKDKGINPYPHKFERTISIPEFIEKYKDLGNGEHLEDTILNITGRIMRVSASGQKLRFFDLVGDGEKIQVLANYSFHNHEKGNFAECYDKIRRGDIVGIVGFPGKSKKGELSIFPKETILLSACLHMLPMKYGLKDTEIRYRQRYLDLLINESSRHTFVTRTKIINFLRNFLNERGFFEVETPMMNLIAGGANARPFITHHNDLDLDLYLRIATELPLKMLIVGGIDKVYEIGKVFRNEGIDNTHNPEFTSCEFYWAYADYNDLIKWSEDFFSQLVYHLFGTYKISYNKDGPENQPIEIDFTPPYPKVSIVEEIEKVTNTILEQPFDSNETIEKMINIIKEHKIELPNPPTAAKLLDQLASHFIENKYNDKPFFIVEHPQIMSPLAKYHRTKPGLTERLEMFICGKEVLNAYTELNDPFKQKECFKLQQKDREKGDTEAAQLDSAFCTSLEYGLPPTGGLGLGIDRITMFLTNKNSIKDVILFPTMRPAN

[3] = target: Calcium-dependent protein kinase 1 (Plasmodium falciparum, UniProt P62344); experiment: MMV: CDPK1 Protein kinase inhibition assay using recombinant PfCDPK1, syntide 2 peptide substrate, ATP and KinaseGlo to measure % inhibition at 1 uM MMV box compound.
Sequence of Calcium-dependent protein kinase 1 (P62344 whole entry): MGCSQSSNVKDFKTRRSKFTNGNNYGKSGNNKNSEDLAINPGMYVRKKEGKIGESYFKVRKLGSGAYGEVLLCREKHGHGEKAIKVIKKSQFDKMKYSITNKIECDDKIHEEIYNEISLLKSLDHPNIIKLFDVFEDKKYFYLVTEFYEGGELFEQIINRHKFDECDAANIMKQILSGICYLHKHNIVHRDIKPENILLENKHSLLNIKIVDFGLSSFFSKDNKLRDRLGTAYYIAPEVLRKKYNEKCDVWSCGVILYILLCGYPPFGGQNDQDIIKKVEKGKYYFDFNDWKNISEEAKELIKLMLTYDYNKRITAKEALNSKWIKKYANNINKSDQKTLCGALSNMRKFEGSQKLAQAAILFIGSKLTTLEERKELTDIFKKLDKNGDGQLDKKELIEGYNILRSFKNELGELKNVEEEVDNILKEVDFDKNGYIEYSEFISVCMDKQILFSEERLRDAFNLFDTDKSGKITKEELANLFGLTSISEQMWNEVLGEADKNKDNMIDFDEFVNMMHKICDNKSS

Proline--tRNA ligase = target: T3, Proline--tRNA ligase (Plasmodium falciparum (isolate 3D7), UniProt Q8I5R7); experiment: MMV: ProRS recombinant Plasmodium falciparum Prolyl-tRNA-synthetase, assay with yeast tRNA, ATP, and proline and 3 uM MMV malaria box compound, assay read out with kinase glo as % inhibition.
T3 sequence (Q8I5R7 whole entry): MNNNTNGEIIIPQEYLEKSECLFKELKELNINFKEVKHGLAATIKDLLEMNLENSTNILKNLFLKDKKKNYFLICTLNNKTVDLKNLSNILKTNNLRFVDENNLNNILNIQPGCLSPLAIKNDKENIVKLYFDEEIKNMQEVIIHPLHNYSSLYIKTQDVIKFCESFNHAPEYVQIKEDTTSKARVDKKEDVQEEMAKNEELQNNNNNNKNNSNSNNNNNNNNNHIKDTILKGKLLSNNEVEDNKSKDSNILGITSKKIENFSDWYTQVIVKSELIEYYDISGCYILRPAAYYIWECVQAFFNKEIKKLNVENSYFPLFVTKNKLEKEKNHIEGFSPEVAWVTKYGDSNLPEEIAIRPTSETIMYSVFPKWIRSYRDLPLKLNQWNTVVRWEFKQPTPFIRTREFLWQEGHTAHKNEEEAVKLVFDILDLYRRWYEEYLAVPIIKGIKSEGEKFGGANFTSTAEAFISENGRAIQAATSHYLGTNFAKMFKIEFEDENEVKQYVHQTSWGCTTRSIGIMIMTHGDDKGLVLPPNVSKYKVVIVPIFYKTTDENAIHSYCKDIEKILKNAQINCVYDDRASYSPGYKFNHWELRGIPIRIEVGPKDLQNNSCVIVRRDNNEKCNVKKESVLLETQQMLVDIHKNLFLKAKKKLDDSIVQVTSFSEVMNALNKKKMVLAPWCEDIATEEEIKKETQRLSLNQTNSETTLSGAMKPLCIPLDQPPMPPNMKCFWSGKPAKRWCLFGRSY

[4] = target: T4, Mitogen-activated protein kinase (Plasmodium falciparum, UniProt Q25917); experiment: Final concentrations were 1 uM ATP, 0.5 mM DTT, 1 mM MgCl2, 0.5 mg/mL BSA, and 10 ug/ml MAP2 in a buffer of 50 mM HEPES (pH 7.0). 0.5 mg/mL histone III-S served as the substrate (13); 100 uM AMP-PNP, an ATP analog, was used as a control inhibitor. Incubation time was 4 hours.
T4 sequence (Q25917 whole entry): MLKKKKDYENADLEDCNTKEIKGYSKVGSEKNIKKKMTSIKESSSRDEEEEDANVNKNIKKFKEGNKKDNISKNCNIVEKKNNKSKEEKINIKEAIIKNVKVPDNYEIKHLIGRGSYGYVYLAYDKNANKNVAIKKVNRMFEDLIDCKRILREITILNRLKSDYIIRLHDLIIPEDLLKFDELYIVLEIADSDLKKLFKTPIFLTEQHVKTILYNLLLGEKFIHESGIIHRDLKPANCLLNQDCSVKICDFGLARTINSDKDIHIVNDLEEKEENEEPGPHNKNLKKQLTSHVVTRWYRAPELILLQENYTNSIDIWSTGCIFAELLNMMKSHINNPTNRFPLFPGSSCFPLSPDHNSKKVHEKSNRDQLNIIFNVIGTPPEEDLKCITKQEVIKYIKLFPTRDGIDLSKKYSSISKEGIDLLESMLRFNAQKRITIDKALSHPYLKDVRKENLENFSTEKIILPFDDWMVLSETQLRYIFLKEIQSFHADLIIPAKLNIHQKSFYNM

[5] = target: T5, Putative uncharacterized protein pk7 (Plasmodium falciparum, UniProt O96214); experiment: Final concentrations were 1 uM ATP, 2 mM DTT, 20 mM MgCl2, 2 mM MnCl2, 0.01% BSA, and 6 ug/ml PK7, in a buffer of 20 mM Tris-HCl (pH 7.5). The enzyme itself was the only substrate present (since autophosphorylation occurs); 100 uM 1NA-PP1 was used as a control inhibitor. Incubation time was 3 hours.
T5 sequence (O96214 whole entry): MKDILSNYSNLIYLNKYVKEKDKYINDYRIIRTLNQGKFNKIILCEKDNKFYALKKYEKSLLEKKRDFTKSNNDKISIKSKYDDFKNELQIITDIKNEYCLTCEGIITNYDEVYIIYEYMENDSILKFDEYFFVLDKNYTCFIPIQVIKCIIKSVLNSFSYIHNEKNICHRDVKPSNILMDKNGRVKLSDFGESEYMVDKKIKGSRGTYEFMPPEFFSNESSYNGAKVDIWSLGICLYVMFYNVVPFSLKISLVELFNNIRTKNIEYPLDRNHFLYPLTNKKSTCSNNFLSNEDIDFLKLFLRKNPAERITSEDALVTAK

| Compound | pIC50 [1] | pIC50 [2] | pIC50 (Lysine--tRNA ligase) | pIC50 [3] | pIC50 (Proline--tRNA ligase) | pIC50 [4] | pIC50 [5] |
| --- | --- | --- | --- | --- | --- | --- | --- |
| CCOc1ccc2nc(C)cc(Nc3ccc(N(C)C)cc3)c2c1 | < 6.00 | < 6.00 | < 5.60 | < 6.00 | < 5.60 | < 6.00 | < 6.00 |
| O=C(Nc1ccc(-c2nc3cc(NC(=O)c4ccc(Cl)cc4)ccc3[nH]2)cc1)c1ccc(Cl)cc1 | < 6.00 | < 6.00 | < 5.60 | < 6.00 | < 5.60 | < 6.00 | < 6.00 |
| CCOC(=O)c1cnc2ccc(OC)cc2c1Nc1ccc(N2CCN(C)CC2)cc1 | < 6.00 | < 6.00 | < 5.60 | < 6.00 | < 5.60 | < 6.00 | < 6.00 |
| COc1ccccc1C(=O)ON=C(N)Cc1cccc2ccccc12 | < 6.00 | < 6.00 | < 5.60 | < 6.00 | < 5.60 | < 6.00 | < 6.00 |
| CCOc1ccc2nc(C)cc(Nc3ccc(Br)cc3)c2c1 | < 6.00 | < 6.00 | < 5.60 | < 6.00 | < 5.60 | < 6.00 | < 6.00 |
| COc1cc2c3cc1Oc1c(OC)c(OC)cc4c1C(Cc1ccc(O)c(c1)Oc1ccc(cc1)CC3N(C)CC2)N(C)CC4 (stereo unspecified) | < 6.00 | < 6.00 | < 5.60 | < 6.00 | < 5.60 | < 6.00 | < 6.00 |
| CCOC(=O)c1cnc2ccc(OC)cc2c1NCc1ccccc1 | < 6.00 | < 6.00 | < 5.60 | < 6.00 | < 5.60 | < 6.00 | < 6.00 |
| CCOC(=O)C1=CN(C)C=C(C(=O)OCC)C1c1cc(Br)c(OCC)c(OC)c1 | < 6.00 | < 6.00 | < 5.60 | < 6.00 | < 5.60 | < 6.00 | < 6.00 |
